Reference: US5597848A, “Benzenesulfonamide derivatives and use thereof” (Hokuriku Seiyaku Co., Ltd., priority 1992, dated 1997)

How the values were obtained:
[1] = target: T1, thromboxane A2 receptor (Cavia porcellus, UniProt A0A286Y4I8); test: Thromboxane A2 antagonistic effect: inhibition of U-46619-induced platelet aggregation in guinea-pig platelet-rich plasma; assay type: cell-based, guinea-pigs; conditions: guinea-pig PRP, U-46619 2 μg/ml, 2 min at 37° C.; read-out: IC50 (50% inhibition against platelet aggregation)
T1 construct: platelet-rich plasma; endogenous in cells; host or cells: guinea-pig platelets in platelet-rich plasma
T1 sequence (A0A286Y4I8 1-347): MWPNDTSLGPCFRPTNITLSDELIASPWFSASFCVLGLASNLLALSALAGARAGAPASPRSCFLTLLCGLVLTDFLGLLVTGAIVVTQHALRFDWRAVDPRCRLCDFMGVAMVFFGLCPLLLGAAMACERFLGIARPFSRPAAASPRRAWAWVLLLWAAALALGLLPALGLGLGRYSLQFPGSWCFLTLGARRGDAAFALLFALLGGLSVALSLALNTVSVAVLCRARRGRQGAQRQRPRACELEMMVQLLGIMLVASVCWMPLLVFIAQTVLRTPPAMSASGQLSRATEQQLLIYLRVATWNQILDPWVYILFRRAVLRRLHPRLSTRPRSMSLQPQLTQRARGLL
Procedure: Blood was collected from the abdominal aorta of guinea-pigs (about 400 g wt.) into 1/10 volume of 3.8% sodium citrate, and then platelet-rich plasma (PRP: 6×10^5 cells/μl) was obtained by centrifugation. A cuvette was filled with PRP 190 μl and set in an aggregometer (Hema Tracer I; Niko Bioscience). Incubation was carried out for 2 min. at 37° C. after the addition of 1 μl of dimethyl sulfoxide solution of test compounds. To the PRP, 10 μl of U-46619 (Cayman), a thromboxane A2 /prostaglandin H2 receptor agonist and potent platelet aggregation inducer, was added at the final concentration of 2 μg/ml, and platelet aggregation was measured by an aggregometer.

[2] = target: T2, thromboxane A2 synthetase (Homo sapiens, UniProt P24557); test: Inhibitory effect on thromboxane A2 synthetase (human platelet membrane fraction, thromboxane B2 RIA); assay type: biochemical; conditions: 3 min at 25° C., read-out: IC50 (50% inhibition of the enzyme activity)
T2 construct: human platelet membrane fraction (RAN) as a source of thromboxane A2 synthetase; purchased RAN; host or cells: human platelet membrane fraction
T2 sequence (P24557 1-533): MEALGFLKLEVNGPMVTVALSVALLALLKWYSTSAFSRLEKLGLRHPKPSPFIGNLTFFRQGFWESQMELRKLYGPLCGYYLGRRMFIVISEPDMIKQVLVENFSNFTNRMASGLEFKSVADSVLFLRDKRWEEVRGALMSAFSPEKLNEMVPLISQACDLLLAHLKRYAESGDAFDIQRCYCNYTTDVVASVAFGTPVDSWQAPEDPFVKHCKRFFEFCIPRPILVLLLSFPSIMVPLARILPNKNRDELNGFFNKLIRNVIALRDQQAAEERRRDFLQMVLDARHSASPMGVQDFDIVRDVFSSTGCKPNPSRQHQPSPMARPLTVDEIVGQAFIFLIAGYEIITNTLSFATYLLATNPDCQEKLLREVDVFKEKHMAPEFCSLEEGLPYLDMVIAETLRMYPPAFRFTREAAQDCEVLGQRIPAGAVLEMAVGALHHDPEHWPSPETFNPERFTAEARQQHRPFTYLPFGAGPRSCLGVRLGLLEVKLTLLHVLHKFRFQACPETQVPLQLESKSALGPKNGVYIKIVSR
Procedure: 100 μg/ml (285 μl) of the commercially available human platelet membrane fraction (RAN) as a source of thromboxane A2 synthetase, dimethyl sulfoxide solution of test compounds (10 μl) and 100 μg/ml (5 μl) of prostaglandin H2 (Cayman) were mixed and reaction was carried out for 3 min at 25° C. Amount of thromboxane B2, a stable metabolite derived from thromboxane A2 produced, was measured by RIA method (TXB2 quantification kit; NEN).

[3] = system: broncho-constriction induced by leukotriene D4; test: Inhibitory effect on broncho-constriction induced by leukotriene D4 (Konzett-Roessler method, oral); assay type: in vivo, male Hartley guinea-pig; conditions: for inhibition in vivo at 30 mg/kg: Cavia porcellus, po, 30 mg/kg orally, leukotriene D4 1 μg/kg after 2 hr, indomethacin and propranolol pretreatment, read-out: Inhibition rate
Procedure: Airway resistance was evaluated according to the method of Konzett-Roessler[Naunyn-Schmiedberg's Arch. Exp. Path. Pharmak., Vol. 195, 71 (1940)]. After male Hartley guinea-pig fasted beforehand for 24 hr were anesthetized with urethane, overflowed air volume was measured under artificial ventilation as an index of broncho-constriction. 30 mg/kg (5 ml/kg) of test compounds suspended in 5% gum Arabic were administered orally to […]. Leukotriene D4 (1 μg/kg; ULTRA FINE) was administered through the cervical vein after 2 hr, and then values were measured at 2 min after the time when responses became maximum. Inhibitory rates compared to the control group were calculated based on the response rate normalized by the overflowed volume at complete closure as 100% broncho-constriction state. Indomethacin (2 mg/kg, i.v.) and propranolol (1 mg/kg, i.v.) were administered at 10 min and 5 min before the administration of leukotriene D4, respectively.

[4] = target: T3, leukotriene D4 (Cavia porcellus, UniProt Q2NNR5); test: Leukotriene D4 antagonistic effect in isolated trachea (Schild method); parameters: species or system male Hartley guinea-pigs
T3 construct: tracheas were isolated from male Hartley guinea-pigs; from tissue; host or cells: isolated trachea of male Hartley guinea-pigs
T3 sequence (Q2NNR5 1-340): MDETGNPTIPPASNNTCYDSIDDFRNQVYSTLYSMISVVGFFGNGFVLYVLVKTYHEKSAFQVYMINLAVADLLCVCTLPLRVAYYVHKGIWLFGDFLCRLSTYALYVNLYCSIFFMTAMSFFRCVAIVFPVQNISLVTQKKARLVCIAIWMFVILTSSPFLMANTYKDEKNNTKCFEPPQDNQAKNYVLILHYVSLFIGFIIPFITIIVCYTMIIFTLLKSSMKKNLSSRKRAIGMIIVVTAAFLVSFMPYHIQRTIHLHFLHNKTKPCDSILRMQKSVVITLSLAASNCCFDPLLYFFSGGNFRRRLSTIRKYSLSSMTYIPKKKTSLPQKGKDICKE
Procedure: According to an ordinary method, tracheas were isolated from male Hartley guinea-pigs, and ring specimens of approximately […] length were prepared. These specimens were suspended isotonically in organ baths that contained Krebs solution at 37° C. under a resting tension of 0.5 g. After repeated contractions with acetylcholine (1×10^-6 M; Ovisot for injection, Daiichi Seiyaku), and the first concentration-response curves was obtained by cummulative applications of leukotriene D4 (ULTRA FINE) into the organ baths. After treatments with test compounds at adequate concentrations for 30 min, the second concentration-response curves were obtained in the same manner as first applications. pKB values were calculated using these two concentration-response curves according to the method of Schild [Pharmacological Review, Vol. 9, 242 (1957)]. Indomethacin (3×10^-6 M; Sigma) was added beforehand to the organ bath to eliminate possible affections by thromboxane A2 and prostaglandin produced by stimulus of leukotriene D4 [Japan J. Pharmacol., Vol. 60, 227 (1992)].

[5] = system: broncho-constriction induced by U-46619; test: Inhibitory effect on broncho-constriction induced by U-46619 (Konzett-Roessler method, oral); assay type: in vivo, Male hartley guinea-pigs; conditions: 0.3 mg/kg orally, 2 hrs before U-46619 4 μg/kg
Procedure: Airway resistance was evaluated according to the method of Konzett-Roessler[Naunyn-Schmiedberg's Arch. Exp. Path. Pharmak., Vol. 195, 71 (1940)]. Male hartley guinea-pigs (about 400 g wt.) were anesthetized with urethane (1.5 g/kg, i.p.) and ventilated by an artificial respirator (Model 683; Harvard). At that time, overflowed air volume above the pressure of about 12 cm H2 O was measured by using a sensor (Model 7020; Ugo basile) and the value was used as an index of broncho-constriction. 0.3 mg/kg (5 ml/kg) of test compounds suspended in 5% gum Arabic was administered orally to Guinea-pigs fasted beforehand for 24 hr. After 2 hrs, U-46619 (4 μg/kg; Cayman) was administered through the cervical vein, and then maximal response was measured. Inhibitory rates compared to the reference group were calculated based on the response rate normalized by the complete closure as 100%.

[6] = isolated trachea, 30 min treatment, indomethacin 3×10^-6 M, Krebs 37° C.

SMILES	IC50 [1] [nM]	IC50 [2] [nM]	Kb [4, 6] [nM]	pKB [4, 6]	leukotriene D4 antagonistic effect (in words) [4]	inhibition in vivo at 30 mg/kg [3] [%]	Inhibition rate [5] [%]	inhibitory effect on broncho-constriction induced by leukotriene D4 (in words) ([3]; guinea pig, in vivo)
CC(NS(=O)(=O)c1ccc(Cl)cc1)c1ccc(CCCC(=O)O)cc1 (centres unmarked) [Example 63, 4-[4-[1-(4-Chlorophenylsulfonylamino)ethyl]phenyl]butyric Acid]		2000						
CCCCCC(NS(=O)(=O)c1ccc(Cl)cc1)c1ccc(CCCC(=O)O)cc1 (centres unmarked) [Example 67, 4-[4-[1-(4-Chlorophenylsulfonylamino)hexyl]phenyl]butyric Acid]	400					80	86	
O=C(O)CCCc1ccc(C(CCC2CCCCC2)NS(=O)(=O)c2ccc(Cl)cc2)cc1 (centres unmarked) [Example 80, 4-[4-[1-(4-Chlorophenylsulfonylamino)-3-cyclohexylpropyl]phenyl]butyric Acid]	1000		126			60		
O=C(O)CCCc1ccc(C(Cc2ccc(Cl)cc2)NS(=O)(=O)c2ccc(Cl)cc2)cc1 (centres unmarked) [Example 96, 4-[4-[2-(4-Chlorophenyl)-1-(4-chlorophenylsulfonylamino)ethyl]phenyl]butyric Acid]	630		1000			43	89	
CCCCCCC(NS(=O)(=O)c1ccc(Cl)cc1)c1ccc(CCCC(=O)O)cc1 (centres unmarked) [Example 99, 4-[4-[1-(4-Chlorophenylsulfonylamino)heptyl]phenyl]butyric Acid]	320		126			64		
CC(C)CCCCC(NS(=O)(=O)c1ccc(Cl)cc1)c1ccc(CCCC(=O)O)cc1 (centres unmarked) [Example 108, 4-[4-[1-(4-Chlorophenylsulfonylamino)-6-methylheptyl]phenyl]-butyric Acid]	500		158			82		
O=C(O)Cc1ccc(CCNS(=O)(=O)c2ccc(Cl)cc2)cc1 [Reference compound, reference compound]		40000	> 100000		inactive	≤ 0	18	no inhibitory effect

More lines, main results first:

IC50 [1] [nM]	IC50 [2] [nM]	Kb [4, 6] [nM]	pKB [4, 6]	leukotriene D4 antagonistic effect (in words) [4]	SMILES	inhibition in vivo at 30 mg/kg [3] [%]	Inhibition rate [5] [%]	inhibitory effect on broncho-constriction induced by leukotriene D4 (in words) ([3]; guinea pig, in vivo)
50	4000				O=C(O)CCCc1ccc(C(Cc2ccccc2)NS(=O)(=O)c2ccc(Cl)cc2)cc1 (centres unmarked) [Example 62, 4-[4-[1-(4-Chlorophenylsulfonylamino)-2-phenylethyl]phenyl]butyric Acid]			
320		794			CCCCC(NS(=O)(=O)c1ccc(Cl)cc1)c1ccc(CCCC(=O)O)cc1 (centres unmarked) [Example 66, 4-[4-[1-(4-Chlorophenylsulfonylamino)pentyl]phenyl]butyric Acid]	81	85	
200	2000				CC(C)C(NS(=O)(=O)c1ccc(Cl)cc1)c1ccc(CCCC(=O)O)cc1 (centres unmarked) [Example 69, 4-[4-[1-(4-Chlorophenylsulfonylamino)-2-methylpropyl]phenyl]butyric Acid]			
250	1600				O=C(O)CCCc1ccc(C(NS(=O)(=O)c2ccc(Cl)cc2)C2CCCC2)cc1 (centres unmarked) [Example 73, 4-[4-[(4-Chlorophenylsulfonylamino)cyclopentylmethyl]phenyl]butyric Acid]			
320	3200	501			O=C(O)CCCc1ccc(C(NS(=O)(=O)c2ccc(Cl)cc2)C2CCCCC2)cc1 (centres unmarked) [Example 74, 4-[4-[(4-Chlorophenylsulfonylamino)cyclohexylmethyl]phenyl]butyric Acid]			
320		100			O=C(O)CCCc1ccc(C(CC2CCCCC2)NS(=O)(=O)c2ccc(Cl)cc2)cc1 (centres unmarked) [Example 79, 4-[4-[1-(4-Chlorophenylsulfonylamino)-2-cyclohexylethyl]phenyl]butyric Acid]		55	
320			5.9		Cc1ccc(CC(NS(=O)(=O)c2ccc(Cl)cc2)c2ccc(CCCC(=O)O)cc2)cc1 (centres unmarked) [Example 97, 4-[4-[1-(4-Chlorophenylsulfonylamino)-2-(p-tolyl)ethyl]phenyl]butyric Acid]	56	88	
320		398			O=C(O)CCCc1ccc(C(CCc2ccccc2)NS(=O)(=O)c2ccc(Cl)cc2)cc1 (centres unmarked) [Example 98, 4-[4-[1-(4-Chlorophenylsulfonylamino)-3-phenylpropyl]phenyl]butyric Acid]	57	84	
250		100			CC(C)CCCC(NS(=O)(=O)c1ccc(Cl)cc1)c1ccc(CCCC(=O)O)cc1 (centres unmarked) [Example 107, 4-[4-[1-(4-Chlorophenylsulfonylamino)-5-methylhexyl]phenyl]butyric Acid]	83		
